pEC50: −log10 of the molar value.
target: TLR2 (Homo sapiens, UniProt O60603); test: TLR2 agonist screening assay, HEK-Blue TLR2 reporter cell line (NF-kB-driven SEAP, absorbance at 600 nm); format: cell-based; set-up: host or cells: HEK-293 (HEK-Blue TLR2 reporter cell line); conditions: HEK-Blue TLR2 reporter cells, agonist mode; average of all runs (Table 4)
Summary of the method: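 TLR2 engagement is scored through NF-kB-induced secreted alkaline phosphatase in HEK-293 cells, detected by substrate colour change at 600 nm after overnight compound treatment at 1% final DMSO. Potency is expressed as EC50.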

Chain of TLR2 (O60603 21-784): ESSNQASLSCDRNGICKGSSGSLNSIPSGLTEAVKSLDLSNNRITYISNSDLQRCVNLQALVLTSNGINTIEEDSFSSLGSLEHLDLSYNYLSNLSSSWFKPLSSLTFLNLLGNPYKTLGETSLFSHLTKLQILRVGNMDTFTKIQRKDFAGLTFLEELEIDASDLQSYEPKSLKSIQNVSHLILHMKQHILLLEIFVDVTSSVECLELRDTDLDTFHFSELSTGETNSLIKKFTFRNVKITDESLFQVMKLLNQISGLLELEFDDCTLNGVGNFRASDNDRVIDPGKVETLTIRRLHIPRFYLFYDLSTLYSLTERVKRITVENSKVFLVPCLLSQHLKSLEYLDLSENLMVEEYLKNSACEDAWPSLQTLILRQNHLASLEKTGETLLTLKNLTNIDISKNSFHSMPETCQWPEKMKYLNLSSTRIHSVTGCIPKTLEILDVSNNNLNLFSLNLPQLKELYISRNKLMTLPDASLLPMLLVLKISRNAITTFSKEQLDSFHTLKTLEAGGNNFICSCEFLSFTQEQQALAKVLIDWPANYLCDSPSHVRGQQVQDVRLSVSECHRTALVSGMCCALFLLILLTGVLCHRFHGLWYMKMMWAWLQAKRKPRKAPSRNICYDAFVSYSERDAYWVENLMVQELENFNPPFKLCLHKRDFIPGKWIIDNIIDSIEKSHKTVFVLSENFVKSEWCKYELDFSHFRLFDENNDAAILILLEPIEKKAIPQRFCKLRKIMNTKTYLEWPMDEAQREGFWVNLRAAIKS

Compared with `CCCCCCCCCCCCCCC(=O)N[C@H]1CN(C(=O)c2ccc(C(=O)N3C[C@@H](C(=O)N[C@H]4C[C@@H]4c4ccccc4)[C@H](C(=O)N[C@H]4C[C@@H]4c4ccccc4)C3)cc2)C[C@@H]1O` [Compound 078, (3S,4S)-1-(4-((3S,4S)-3-hydroxy-4-pentadecanamidopyrrolidine-1-carbonyl)benzoyl)-N3,N4-bis((1S,2R)-2-phenylcyclopropyl)pyrrolidine-3,4-dicarboxamide], `CCCCCCCCCCCCCCCN[C@H]1CN(C(=O)c2ccc(C(=O)N3C[C@@H](C(=O)N[C@H]4C[C@@H]4c4ccccc4)[C@H](C(=O)N[C@H]4C[C@@H]4c4ccccc4)C3)cc2)C[C@@H]1O` [Compound 087, (3S,4S)-1-(4-((3S,4S)-3-hydroxy-4-(pentadecylamino)pyrrolidine-1-carbonyl)benzoyl)-N3,N4-bis((1S,2R)-2-phenylcyclopropyl)pyrrolidine-3,4-dicarboxamide] is lower in pEC50: 6.46 to 7.29 for the first, less than 6.00 for the second.

First: CCCCCCCCCCCCCNC(=O)N[C@@H]1CCN(C(=O)c2ccc(C(=O)N3C[C@@H](C(=O)N[C@H]4C[C@@H]4c4ccccc4)[C@H](C(=O)N[C@H]4C[C@@H]4c4ccccc4)C3)cc2)C1 [Compound 079, (3S,4S)—N3,N4-bis((1S,2R)-2-phenylcyclopropyl)-1-(4-((R)-3-(3-tridecylureido)pyrrolidine-1-carbonyl)benzoyl)pyrrolidine-3,4-dicarboxamide]
Second: CCCCCCCCCCCCCCCN[C@@H]1CCN(C(=O)c2ccc(C(=O)N3C[C@@H](C(=O)N[C@H]4C[C@@H]4c4ccccc4)[C@H](C(=O)N[C@H]4C[C@@H]4c4ccccc4)C3)cc2)C1 [Compound 082, (3S,4S)-1-(4-((R)-3-(pentadecylamino)pyrrolidine-1-carbonyl)benzoyl)-N3,N4-bis((1S,2R)-2-phenylcyclopropyl)pyrrolidine-3,4-dicarboxamide]
The pEC50 of the first is higher: 7.30 to 10.00 for the first, less than 6.00 for the second.

First: CCCCCCCO[C@H]1CN(C(=O)c2ccc(C(=O)N3C[C@@H](C(=O)N[C@H]4C[C@@H]4c4ccccc4)[C@H](C(=O)N[C@H]4C[C@@H]4c4ccccc4)C3)cc2)C[C@@H]1NC(=O)CCCCCC [Compound 080, (3S,4S)-1-(4-((3S,4S)-3-heptanamido-4-(heptyloxy)pyrrolidine-1-carbonyl)benzoyl)-N3,N4-bis((1S,2R)-2-phenylcyclopropyl)pyrrolidine-3,4-dicarboxamide]
Second: CCCCCCCN[C@H]1CN(C(=O)c2ccc(C(=O)N3C[C@@H](C(=O)N[C@H]4C[C@@H]4c4ccccc4)[C@H](C(=O)N[C@H]4C[C@@H]4c4ccccc4)C3)cc2)C[C@@H]1OCCCCCCC [Compound 089, (3S,4S)-1-(4-((3S,4S)-3-(heptylamino)-4-(heptyloxy)pyrrolidine-1-carbonyl)benzoyl)-N3,N4-bis((1S,2R)-2-phenylcyclopropyl)pyrrolidine-3,4-dicarboxamide]
The pEC50 of the first is higher: 6.46 to 7.29 for the first, less than 6.00 for the second. The first is the more potent here.

First: O=C(N[C@H]1C[C@@H]1c1ccccc1)[C@@H]1CN(C(=O)C23CCC(C(=O)N4C[C@@H](C(=O)N[C@H]5C[C@@H]5c5ccccc5)[C@H](C(=O)N[C@H]5C[C@@H]5c5ccccc5)C4)(CC2)C3)C[C@H]1C(=O)N[C@H]1C[C@@H]1c1ccccc1 [Compound 081, (3S,3'S,4S,4'S)-1,1′-(bicyclo [2.2.1]heptane-1,4-dicarbonyl) bis (N3,N4-bis((1S,2R)-2-phenylcyclopropyl)pyrrolidine-3,4-dicarboxamide)]
Second: CCCCCCCCCCCCCCNC(=O)[C@@H]1CN(C(=O)c2ccc(C(=O)N3C[C@@H](C(=O)N[C@H]4C[C@@H]4c4ccccc4)[C@H](C(=O)N[C@H]4C[C@@H]4c4ccccc4)C3)cc2)C[C@H]1N(C)[C@H](C)c1ccccc1 [Compound 090, (3S,4S)-1-(4-((3S,4R)-3-(methyl((R)-1-phenylethyl)amino)-4-(tetradecylcarbamoyl)pyrrolidine-1-carbonyl)benzoyl)-N3,N4-bis((1S,2R)-2-phenylcyclopropyl)pyrrolidine-3,4-dicarboxamide]
The pEC50 of the first is higher: 6.00 to 6.45 for the first, less than 6.00 for the second. The first is the more potent here.

`CCCCCCCCCCCCCCS(=O)(=O)N[C@@H]1CCN(C(=O)c2ccc(C(=O)N3C[C@@H](C(=O)N[C@H]4C[C@@H]4c4ccccc4)[C@H](C(=O)N[C@H]4C[C@@H]4c4ccccc4)C3)cc2)C1` [Compound 083, (3S,4S)—N3,N4-bis((1S,2R)-2-phenylcyclopropyl)-1-(4-((R)-3-(tetradecylsulfonamido)pyrrolidine-1-carbonyl)benzoyl)pyrrolidine-3,4-dicarboxamide] and `CCCCCCCCCCCCCCNC(=O)[C@@H]1CN(C(=O)c2ccc(C(=O)N3C[C@@H](C(=O)N[C@H]4C[C@@H]4c4ccccc4)[C@H](C(=O)N[C@H]4C[C@@H]4c4ccccc4)C3)cc2)C[C@H]1N(C)C` [Compound 091, (3S,4S)-1-(4-((3S,4R)-3-(dimethylamino)-4-(tetradecylcarbamoyl)pyrrolidine-1-carbonyl)benzoyl)-N3,N4-bis((1S,2R)-2-phenylcyclopropyl)pyrrolidine-3,4-dicarboxamide] cannot be ordered by pEC50: less than 6.00 for the first, less than 6.00 for the second.

`CCCCCCCCCCCCCCNC(=O)[C@H]1CN(Cc2ccc(C(=O)N3C[C@@H](C(=O)N[C@H]4C[C@@H]4c4ccccc4)[C@H](C(=O)N[C@H]4C[C@@H]4c4ccccc4)C3)cc2)CCN1C` [Compound 084, (3S,4S)-1-(4-(((R)-4-methyl-3-(tetradecylcarbamoyl)piperazin-1-yl)methyl)benzoyl)-N3,N4-bis((1S,2R)-2-phenylcyclopropyl) pyrrolidine-3,4-dicarboxamide] and `CCCCCCCCCCCCCCNC(=O)[C@@H]1CN(Cc2ccc(C(=O)N3C[C@@H](C(=O)N[C@H]4C[C@@H]4c4ccccc4)[C@H](C(=O)N[C@H]4C[C@@H]4c4ccccc4)C3)cc2)CCN1C` [Compound 088, (3S,4S)-1-(4-(((S)-4-methyl-3-(tetradecylcarbamoyl)piperazin-1-yl)methyl)benzoyl)-N3,N4-bis((1S,2R)-2-phenylcyclopropyl) pyrrolidine-3,4-dicarboxamide] cannot be ordered by pEC50: less than 6.00 for the first, less than 6.00 for the second.

`CCCCCCCCCCCCCCNC(=O)[C@H]1CN(Cc2ccc(C(=O)N3C[C@@H](C(=O)N[C@H]4C[C@@H]4c4ccccc4)[C@H](C(=O)N[C@H]4C[C@@H]4c4ccccc4)C3)cc2)C(=O)CN1C` [Compound 092, (3S,4S)-1-(4-(((R)-4-methyl-2-oxo-5-(tetradecylcarbamoyl)piperazin-1-yl)methyl)benzoyl)-N3,N4-bis((1S,2R)-2-phenylcyclopropyl)pyrrolidine-3,4-dicarboxamide] and `CCCCCCCCCCCCCCNC(=O)[C@@H]1CN(Cc2ccc(C(=O)N3C[C@@H](C(=O)N[C@H]4C[C@@H]4c4ccccc4)[C@H](C(=O)N[C@H]4C[C@@H]4c4ccccc4)C3)cc2)C(=O)CN1C` [Compound 093, (3S,4S)-1-(4-(((S)-4-methyl-2-oxo-5-(tetradecylcarbamoyl)piperazin-1-yl)methyl)benzoyl)-N3,N4-bis((1S,2R)-2-phenylcyclopropyl)pyrrolidine-3,4-dicarboxamide] fall in the same range of pEC50: 6.46 to 7.29 for the first, 6.46 to 7.29 for the second.

First: CCCCCCCCCCCCCCNC(=O)[C@@H]1CN(C(=O)c2ccc(C(=O)N3C[C@@H](C(=O)N[C@H]4C[C@@H]4c4ccccc4)[C@H](C(=O)N[C@H]4C[C@@H]4c4ccccc4)C3)cc2)C[C@H]1NC [Compound 098, (3S,4S)-1-(4-((3S,4R)-3-(methylamino)-4-(tetradecylcarbamoyl)pyrrolidine-1-carbonyl)benzoyl)-N3,N4-bis((1S,2R)-2-phenylcyclopropyl)pyrrolidine-3,4-dicarboxamide]
Second: CCCCCCCCCCCCCCNC(=O)C1CC(=O)N(Cc2ccc(C(=O)N3C[C@@H](C(=O)N[C@H]4C[C@@H]4c4ccccc4)[C@H](C(=O)N[C@H]4C[C@@H]4c4ccccc4)C3)cc2)C1 (stereo partly drawn) [Compound 100, (3S,4S)-1-(4-((2-oxo-4-(tetradecylcarbamoyl)pyrrolidin-1-yl)methyl)benzoyl)-N3,N4-bis((1S,2R)-2-phenylcyclopropyl)pyrrolidine-3,4-dicarboxamide]
The pEC50 of the first is higher: 7.30 to 10.00 for the first, less than 6.00 for the second. The first is the more potent here.

`CCCCCCNC(=O)CC[C@@H](NC(=O)c1ccc(C(=O)N2C[C@@H](C(=O)N[C@H]3C[C@@H]3c3ccccc3)[C@H](C(=O)N[C@H]3C[C@@H]3c3ccccc3)C2)cc1)C(=O)NCCCCCC` [Compound 099, (3S,4S)-1-(4-(((R)-1,5-bis(hexylamino)-1,5-dioxopentan-2-yl)carbamoyl)benzoyl)-N3,N4-bis((1S,2R)-2-phenylcyclopropyl)pyrrolidine-3,4-dicarboxamide] and `CCCCCCNC(=O)[C@@H](CCNC(=O)CCCCCC)NC(=O)c1ccc(C(=O)N2C[C@@H](C(=O)N[C@H]3C[C@@H]3c3ccccc3)[C@H](C(=O)N[C@H]3C[C@@H]3c3ccccc3)C2)cc1` [Compound 119, (3S,4S)-1-(4-(((R)-4-heptanamido-1-(hexylamino)-1-oxobutan-2-yl)carbamoyl)benzoyl)-N3,N4-bis((1S,2R)-2-phenylcyclopropyl)pyrrolidine-3,4-dicarboxamide] cannot be ordered by pEC50: less than 6.00 for the first, less than 6.00 for the second.

`CCCCCCNC(=O)C[C@@H](NC(=O)c1ccc(C(=O)N2C[C@@H](C(=O)N[C@H]3C[C@@H]3c3ccccc3)[C@H](C(=O)N[C@H]3C[C@@H]3c3ccccc3)C2)cc1)C(=O)NCCCCCC` [Compound 117, (3S,4S)-1-(4-(((R)-1,4-bis(hexylamino)-1,4-dioxobutan-2-yl)carbamoyl)benzoyl)-N3,N4-bis((1S,2R)-2-phenylcyclopropyl) pyrrolidine-3,4-dicarboxamide] and `CCCCCCNC(=O)[C@@H](CNC(=O)CCCCCC)NC(=O)c1ccc(C(=O)N2C[C@@H](C(=O)N[C@H]3C[C@@H]3c3ccccc3)[C@H](C(=O)N[C@H]3C[C@@H]3c3ccccc3)C2)cc1` [Compound 118, (3S,4S)-1-(4-(((R)-3-heptanamido-1-(hexylamino)-1-oxopropan-2-yl)carbamoyl)benzoyl)-N3,N4-bis((1S,2R)-2-phenylcyclopropyl) pyrrolidine-3,4-dicarboxamide] cannot be ordered by pEC50: less than 6.00 for the first, less than 6.00 for the second.

From US11951094B2, “TLR2 modulator compounds, pharmaceutical compositions and uses thereof” (Axial Therapeutics, Inc., priority 2020, dated 2024)
